ChEMBL document CHEMBL6096719, “Kidney Targeting Smart Antibiotic Discovery: Multimechanism Pleuromutilins for Pyelonephritis Therapy” (J Med Chem, 2025)
≈ marks a conversion by molar mass, not a printed value.

What was measured:
Staphylococcus aureus [1] = experiment: Antibacterial activity against methicillin-resistant Staphylococcus aureus 596 assessed as inhibition of bacterial growth incubated for 24 hrs by broth microdilution method; type: functional
Acinetobacter baumannii [2] = experiment: Antibacterial activity against carbapenem-resistant Acinetobacter baumannii 882 assessed as inhibition of bacterial growth incubated for 24 hrs by broth microdilution method; type: functional
Staphylococcus aureus [3] = experiment: Antibacterial activity against methicillin-resistant Staphylococcus aureus 206 assessed as inhibition of bacterial growth incubated for 24 hrs by broth microdilution method; type: functional
[4] = Aqueous solubility of the compound incubated for 12 hrs by UV-Vis spectrophotometry; type: physicochemical; conditions: buffer
Staphylococcus aureus [5] = experiment: Antibacterial activity against methicillin-resistant Staphylococcus aureus 222 assessed as inhibition of bacterial growth incubated for 24 hrs by broth microdilution method; type: functional
Staphylococcus aureus [6] = experiment: (§1) Antibacterial activity against methicillin-resistant Staphylococcus aureus ATCC33591 infected in systemic intraperitoneal infection Kunming mouse model assessed as decrease in inflammation and neutrophil infiltration in kidney at 5 mg/kg, ip treated at 1 hr post-infection and measured after 7 days by Hematoxylin-Eosin staining based analysis; type: functional, organism-based; conditions: time 7.0 day
Staphylococcus aureus [7] = experiment: Antibacterial activity against methicillin-resistant Staphylococcus aureus 575 assessed as inhibition of bacterial growth incubated for 24 hrs by broth microdilution method; type: functional
Enterococcus = experiment: Antibacterial activity against vancomycin-resistant Enterococcus 80 assessed as inhibition of bacterial growth incubated for 24 hrs by broth microdilution method; type: functional
Staphylococcus aureus [8] = experiment: as §1, with “inflammation,” for “inflammation and”, “infiltration, alveolar structure destruction, leukocyte infiltration, interstitial thickening” for “infiltration”, “lungs” for “kidney”; type: functional, organism-based; conditions: time 7.0 day
[9] = Toxicity against methicillin-resistant Staphylococcus aureus ATCC33591 infected systemic intraperitoneal infection Kunming mouse model assessed as animal's mortality at 5 mg/kg, ip treated at 1 hr post-infection and measured after 7 days; type: organism-based; conditions: in vivo, 168 h, time 7 day
[10] = Cytotoxicity against human HepG2 cells assessed as reduction in cell viability incubated for 24 hrs by CCK8 assay; type: toxicity, cell-based
Pseudomonas aeruginosa = experiment: Antibacterial activity against multidrug-resistant Pseudomonas aeruginosa 126 assessed as inhibition of bacterial growth incubated for 24 hrs by broth microdilution method; type: functional
[11] = Cytotoxicity against human HEK293 cells assessed as reduction in cell viability incubated for 24 hrs by CCK8 assay; type: toxicity, cell-based
Staphylococcus aureus [12] = experiment: as §1, with “liver” for “kidney”; type: functional, organism-based; conditions: time 7.0 day
Klebsiella pneumoniae = experiment: Antibacterial activity against multidrug-resistant Klebsiella pneumoniae 893 assessed as inhibition of bacterial growth incubated for 24 hrs by broth microdilution method; type: functional
Staphylococcus aureus [13] = experiment: Antibacterial activity against methicillin-resistant Staphylococcus aureus 171 assessed as inhibition of bacterial growth incubated for 24 hrs by broth microdilution method; type: functional
[14] = Cytotoxicity against human A549 cells assessed as reduction in cell viability incubated for 24 hrs by CCK8 assay; type: toxicity, cell-based
Staphylococcus aureus [15] = experiment: as §1, with “inflammation,” for “inflammation and”, “and disordered spleen structure” for “in kidney”; type: functional, organism-based; conditions: time 7.0 day
[16] = target: Solute carrier family 22 member 1 (Homo sapiens, UniProt O15245); experiment: Inhibition of human OCT1 transfected in HEK293 cells assessed as decrease in intracellular ASP accumulation at 200 uM incubated for 10 mins followed by incubation with ASP for 5 mins by fluorescence based analysis; type: cell-based; conditions: hek293, 0.25 h, time 15 min
Solute carrier family 22 member 1, sequence (O15245 whole entry): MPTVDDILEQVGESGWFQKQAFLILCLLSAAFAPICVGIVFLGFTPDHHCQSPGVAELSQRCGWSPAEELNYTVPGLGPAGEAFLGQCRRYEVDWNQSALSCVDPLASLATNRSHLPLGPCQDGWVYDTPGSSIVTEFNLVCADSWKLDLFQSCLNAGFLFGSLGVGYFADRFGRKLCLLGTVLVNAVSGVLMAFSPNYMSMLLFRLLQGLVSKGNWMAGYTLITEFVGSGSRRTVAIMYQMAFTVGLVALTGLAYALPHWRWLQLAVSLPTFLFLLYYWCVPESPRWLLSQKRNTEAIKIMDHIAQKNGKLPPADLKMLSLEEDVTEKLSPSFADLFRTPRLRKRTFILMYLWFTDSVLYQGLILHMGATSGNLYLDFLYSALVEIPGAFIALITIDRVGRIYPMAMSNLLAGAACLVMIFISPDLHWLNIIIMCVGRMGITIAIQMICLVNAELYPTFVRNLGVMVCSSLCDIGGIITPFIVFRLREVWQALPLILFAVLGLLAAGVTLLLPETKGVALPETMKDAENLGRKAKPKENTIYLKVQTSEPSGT

[17] = target: T1, Solute carrier family 22 member 2 (Homo sapiens, UniProt O15244); experiment: Inhibition of human OCT2 transfected in HEK293 cells assessed as decrease in intracellular ASP accumulation at 100 uM incubated for 10 mins followed by incubation with ASP for 5 mins by fluorescence based analysis; type: cell-based; conditions: hek293, 0.25 h, time 15 min
T1 sequence (O15244 whole entry): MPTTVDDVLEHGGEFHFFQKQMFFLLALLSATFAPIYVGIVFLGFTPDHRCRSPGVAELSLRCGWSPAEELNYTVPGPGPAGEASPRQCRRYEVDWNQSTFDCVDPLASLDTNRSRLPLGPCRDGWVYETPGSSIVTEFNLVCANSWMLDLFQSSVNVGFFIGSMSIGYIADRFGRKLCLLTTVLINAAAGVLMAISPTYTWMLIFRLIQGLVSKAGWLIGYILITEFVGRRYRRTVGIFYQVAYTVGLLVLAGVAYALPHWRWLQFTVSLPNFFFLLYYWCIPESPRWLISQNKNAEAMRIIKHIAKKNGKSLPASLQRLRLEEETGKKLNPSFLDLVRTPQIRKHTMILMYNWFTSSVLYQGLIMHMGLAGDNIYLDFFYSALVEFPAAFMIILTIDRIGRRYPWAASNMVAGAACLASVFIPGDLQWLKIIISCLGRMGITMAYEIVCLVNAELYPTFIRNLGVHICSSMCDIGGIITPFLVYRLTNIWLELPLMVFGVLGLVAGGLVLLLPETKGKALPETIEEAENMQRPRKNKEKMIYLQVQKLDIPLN

Escherichia coli [18] = experiment: Antibacterial activity against Escherichia coli CMCC 44103 assessed as inhibition of bacterial growth incubated for 24 hrs by broth microdilution method; type: functional
Staphylococcus aureus [19] = experiment: Antibacterial activity against methicillin-resistant Staphylococcus aureus ATCC 43300 assessed as inhibition of bacterial growth incubated for 24 hrs by broth microdilution method; type: functional
[20] = test system: Staphylococcus epidermidis; experiment: Antibacterial activity against methicillin-resistant Staphylococcus epidermidis ATCC 51625 assessed as inhibition of bacterial growth incubated for 24 hrs by broth microdilution method; type: functional
Staphylococcus aureus [21] = experiment: Antibacterial activity against Staphylococcus aureus ATCC 29213 assessed as inhibition of bacterial growth incubated for 24 hrs by broth microdilution method; type: functional
Acinetobacter baumannii [22] = experiment: Antibacterial activity against Acinetobacter baumannii ATCC 19606 assessed as inhibition of bacterial growth incubated for 24 hrs by broth microdilution method; type: functional
Escherichia coli [23] = experiment: Antibacterial activity against Escherichia coli ATCC 25922 assessed as inhibition of bacterial growth incubated for 24 hrs by broth microdilution method; type: functional
Staphylococcus aureus [24] = experiment: Antibacterial activity against methicillin-resistant Staphylococcus aureus ATCC 33591 assessed as inhibition of bacterial growth incubated for 24 hrs by broth microdilution method; type: functional
Salmonella enterica = experiment: Antibacterial activity against Salmonella enterica ATCC 14028 assessed as inhibition of bacterial growth incubated for 24 hrs by broth microdilution method; type: functional

Row | SMILES | MIC (Staphylococcus aureus [1]) [µg/mL] | MIC (Acinetobacter baumannii [2]) [µg/mL] | MIC (Staphylococcus aureus [3]) [µg/mL] | solubility at 12 h [4] [µg/mL] | MIC (Staphylococcus aureus [5]) [µg/mL] | MIC (Staphylococcus aureus [7]) [µg/mL] | MIC (Enterococcus) [µg/mL] | CC50 at 24 h [10] [µM] | MIC (Pseudomonas aeruginosa) [µg/mL] | CC50 at 24 h [11] [µM] | MIC (Klebsiella pneumoniae) [µg/mL] | MIC (Staphylococcus aureus [13]) [µg/mL] | CC50 at 24 h [14] [µM] | MIC (Escherichia coli [18]) [µg/mL] | MIC (Staphylococcus aureus [19]) [µg/mL] | MIC [20] [µg/mL] | MIC (Staphylococcus aureus [21]) [µg/mL] | MIC (Acinetobacter baumannii [22]) [µg/mL] | MIC (Escherichia coli [23]) [µg/mL] | MIC (Staphylococcus aureus [24]) [µg/mL] | other results
1 | C=C[C@]1(C)C[C@@H](OC(=O)CSC(C)(C)CNC(=O)[C@H](N)C(C)C)[C@]2(C)[C@H](C)CC[C@]3(CCC(=O)[C@H]32)[C@@H](C)[C@@H]1O [VALNEMULIN] | > 128 | 64 (≈ 113 µM) | 64 (≈ 113 µM) | 218 (≈ 386 µM) | 64 (≈ 113 µM) | 128 (≈ 227 µM) | 64 (≈ 113 µM) | 77.3 | 64 (≈ 113 µM) | 65.4 | 32 (≈ 56.7 µM) | > 128 | 53.7 | – | – | – | – | – | – | – | Activity (Staphylococcus aureus [6]): Active; Slight Without Complete Recovery Observed; Activity (Staphylococcus aureus [8]): Active; Slight Without Complete Recovery Observed; Activity [9]: Toxic; Activity (Staphylococcus aureus [12]): Active; Slight Without Complete Recovery Observed; Activity (Staphylococcus aureus [15]): Active; Slight Without Complete Recovery Observed
2 | CN(C)CCC=C1c2ccccc2CCc2ccccc21 [AMITRIPTYLINE] | – | – | – | – | – | – | – | – | – | – | – | – | – | – | – | – | – | – | – | – | inhibition (INH) [16]: Active; inhibition (INH) [17]: Active
3 | C=C[C@]1(C)C[C@@H](OC(=O)CSc2nc3cc[n+](Cc4ccc(C#N)cc4)cc3s2)[C@]2(C)[C@H](C)CC[C@]3(CCC(=O)[C@H]32)[C@@H](C)[C@@H]1O.[Br-] | 8 | 64 | 64 | 451 | 16 | 32 | 16 | 78.5 | 32 | 18.2 | 16 | 16 | > 100 | < 2 | < 2 | < 2 | < 2 | < 2 | < 2 | < 2 | MIC (Salmonella enterica): < 2 µg/mL
4 | C=C[C@]1(C)C[C@@H](OC(=O)CSc2nc3cc[n+](Cc4ccc(C#N)cc4)cc3[nH]2)[C@]2(C)[C@H](C)CC[C@]3(CCC(=O)[C@H]32)[C@@H](C)[C@@H]1O.[Br-] | 8 | 64 | 4 | 481 | 16 | 32 | 2 | 96.3 | 32 | > 100 | 16 | 16 | > 100 | < 2 | < 2 | < 2 | < 2 | < 2 | < 2 | < 2 | MIC (Salmonella enterica): < 2 µg/mL
